Source: patent US9334289B2, “Cephem compound having catechol or pseudo-catechol structure” (SHIONOGI & CO., LTD., priority 2011, dated 2016)
Values after ≈ are worked out from the molar mass of the structure shown.

Legend:
Experiment in all cases: MIC, CLSI broth microdilution, Test Example 2
Type in all cases: cell-based
A. baumannii SR01331 = details: PER-1, OXA-23.51 ESBL- & OXA-type carbapenemase producing strain, cation-adjusted Iso-Sensitest broth containing human Apo-transferrin, 5×10^5 cfu/mL; for MIC: Acinetobacter baumannii, SR01331, read-out: Minimum Inhibitory Concentration (MIC) A. baumannii SR01331
Protocol: (§1) Measurement of Minimum Inhibitory Concentration (MIC: μg/mL) was conducted according to CLSI (Clinical and Laboratory Standards Institute) method, and the amount of bacteria for inoculation was 5×10^5 cfu/mL, and cation-adjusted Iso-Sensitest broth containing human Apo-transferrin was used as a test medium, and the experiment was conducted using broth microdilution method.

E. cloacae NCTC13464 = details: CTX-M group 9 ESBL producing strain, cation-adjusted Iso-Sensitest broth containing human Apo-transferrin, 5×10^5 cfu/mL; for MIC: Enterobacter cloacae, NCTC13464, read-out: Minimum Inhibitory Concentration (MIC) E. cloacae NCTC 13464
Protocol: as §1

E. coli ATCCBAA-196 = details: TEM-10 ESBL producing strain, cation-adjusted Iso-Sensitest broth containing human Apo-transferrin, 5×10^5 cfu/mL; for MIC: Escherichia coli, ATCCBAA196, read-out: Minimum Inhibitory Concentration (MIC) E. coli ATCC BAA-196
Protocol: as §1

E. coli ATCCBAA-200 = details: SHV-4 ESBL producing strain, cation-adjusted Iso-Sensitest broth containing human Apo-transferrin, 5×10^5 cfu/mL; for MIC: Escherichia coli, ATCCBAA200, read-out: Minimum Inhibitory Concentration (MIC) E. coli ATCC BAA-200
Protocol: as §1

E. coli SR01337 = details: TEM-1 ESBL producing strain, cation-adjusted Iso-Sensitest broth containing human Apo-transferrin, 5×10^5 cfu/mL; for MIC: Escherichia coli, SR01337, read-out: Minimum Inhibitory Concentration (MIC) E. coli SR01337
Protocol: as §1

K. pneumoniae ATCC700603 = details: SHV18 ESBL producing strain, cation-adjusted Iso-Sensitest broth containing human Apo-transferrin, 5×10^5 cfu/mL; for MIC: Klebsiella pneumoniae, ATCC700603, read-out: Minimum Inhibitory Concentration (MIC) K. pneumoniae ATCC 700603
Protocol: as §1

P. aeruginosa SR01332 = details: VIM-11 MBL producing strain (carbapenem resistance strain), cation-adjusted Iso-Sensitest broth containing human Apo-transferrin, 5×10^5 cfu/mL; for MIC: Pseudomonas aeruginosa, SR01332, read-out: Minimum Inhibitory Concentration (MIC) P. aeruginosa SR01332
Protocol: as §1

P. aeruginosa SR01335 = details: VIM-1 like MBL producing strain (carbapenem resistance strain), cation-adjusted Iso-Sensitest broth containing human Apo-transferrin, 5×10^5 cfu/mL; for MIC: Pseudomonas aeruginosa, SR01335, read-out: Minimum Inhibitory Concentration (MIC) P. aeruginosa SR01335
Protocol: as §1

MIC (A. baumannii SR01331) [µg/mL]	MIC (E. cloacae NCTC13464) [µg/mL]	MIC (E. coli ATCCBAA-196) [µg/mL]	MIC (E. coli ATCCBAA-200) [µg/mL]	MIC (E. coli SR01337) [µg/mL]	MIC (K. pneumoniae ATCC700603) [µg/mL]	MIC (P. aeruginosa SR01332) [µg/mL]	MIC (P. aeruginosa SR01335) [µg/mL]	Structure (SMILES)	Minimum Inhibitory Concentration (MIC) A. baumannii SR01331 (A. baumannii SR01331) [µg/mL]	Minimum Inhibitory Concentration (MIC) E. cloacae NCTC 13464 (E. cloacae NCTC13464) [µg/mL]	Minimum Inhibitory Concentration (MIC) E. coli ATCC BAA-196 (E. coli ATCCBAA-196) [µg/mL]	Minimum Inhibitory Concentration (MIC) E. coli ATCC BAA-200 (E. coli ATCCBAA-200) [µg/mL]	Minimum Inhibitory Concentration (MIC) E. coli SR01337 (E. coli SR01337) [µg/mL]	Minimum Inhibitory Concentration (MIC) K. pneumoniae ATCC 700603 (K. pneumoniae ATCC700603) [µg/mL]	Minimum Inhibitory Concentration (MIC) P. aeruginosa SR01332 (P. aeruginosa SR01332) [µg/mL]	Minimum Inhibitory Concentration (MIC) P. aeruginosa SR01335 (P. aeruginosa SR01335) [µg/mL]
0.25	0.063	≤ 0.031	0.063	≤ 0.031	≤ 0.031	2	2	Nc1nc(/C(=N/O[C@@H](CC(=O)[O-])C(=O)[O-])C(=O)N[C@@H]2C(=O)N3C(c4nnn[n-]4)=C(C[N+]4(CCNC(=O)c5ccc(O)c(O)c5Cl)CCCCC4)CS[C@H]23)cs1.[Na+].[Na+] [Compound I-67]								
0.5	0.063	0.125	0.125	≤ 0.031	0.125	2	2	CC(C)(O/N=C(\C(=O)N[C@@H]1C(=O)N2C(c3nnn[n-]3)=C(C[N+]3(CCNC(=O)c4ccc(O)c(O)c4Cl)CCCCC3)CS[C@H]12)c1csc(N)n1)C(=O)[O-].[Na+] [Compound I-69]								
0.5	0.125	0.125	0.25	≤ 0.031	0.125	4	1	CC(C)(O/N=C(\C(=O)N[C@@H]1C(=O)N2C(c3nnn[n-]3)=C(C[N+]3(CCNC(=O)c4ccc(O)c(O)c4Cl)CCCC3)CS[C@H]12)c1csc(N)n1)C(=O)[O-].[Na+] [Compound I-82]								
								Nc1nc(C(=NOC(CC(=O)[O-])C(=O)[O-])C(=O)NC2C(=O)N3C(c4nnn[n-]4)=C(C[N+]45CCC(CNC(=O)c6ccc(O)c(O)c6Cl)(CC4)CC5)CSC23)c(Cl)s1.[Na+].[Na+] (stereo not drawn) [Compound I-94]	0.5	0.5	0.063	0.5	0.063	0.5	2	1
0.25 (≈ 0.293 µM)	0.5 (≈ 0.586 µM)	0.125 (≈ 0.147 µM)	0.5 (≈ 0.586 µM)	0.25 (≈ 0.293 µM)	0.5 (≈ 0.586 µM)	4 (≈ 4.69 µM)	1 (≈ 1.17 µM)	Nc1nc(/C(=N/O[C@@H](CC(=O)O)C(=O)[O-])C(=O)N[C@@H]2C(=O)N3C(c4nnn[nH]4)=C(C[N@+]45CCC[C@H]4CN(C(=O)c4ccc(O)c(O)c4Cl)CC5)CS[C@H]23)c(Cl)s1 [Compound I-97]								
1 (≈ 1.27 µM)	0.125 (≈ 0.159 µM)	0.25 (≈ 0.317 µM)	0.5 (≈ 0.634 µM)	≤ 0.031	0.25 (≈ 0.317 µM)	8 (≈ 10.1 µM)	2 (≈ 2.54 µM)	CC(C)(O/N=C(\C(=O)N[C@@H]1C(=O)N2C(c3nnn[nH]3)=C(C[N@+]34CCC[C@H]3CN(C(=O)c3ccc(O)c(O)c3Cl)CC4)CS[C@H]12)c1csc(N)n1)C(=O)[O-] [Compound I-98]								
0.5 (≈ 0.633 µM)	0.125 (≈ 0.158 µM)	≤ 0.031	0.063 (≈ 0.0798 µM)	≤ 0.031	0.063 (≈ 0.0798 µM)	4 (≈ 5.06 µM)	2 (≈ 2.53 µM)	Nc1nc(/C(=N/O[C@@H](CC(=O)O)C(=O)[O-])C(=O)N[C@@H]2C(=O)N3C(c4nnn[nH]4)=C(C[N+]4(CCNC(=O)c5cc(O)c(O)c(F)c5)CCCC4)CS[C@H]23)cs1 [Compound I-99]								
0.25 (≈ 0.303 µM)	0.25 (≈ 0.303 µM)	≤ 0.031	0.063 (≈ 0.0764 µM)	≤ 0.031	0.125 (≈ 0.152 µM)	2 (≈ 2.43 µM)	2 (≈ 2.43 µM)	Nc1nc(/C(=N/O[C@@H](CC(=O)O)C(=O)[O-])C(=O)N[C@@H]2C(=O)N3C(c4nnn[nH]4)=C(C[N+]4(CCNC(=O)c5cc(O)c(O)c(F)c5)CCCC4)CS[C@H]23)c(Cl)s1 [Compound I-100]								

Structure (SMILES)	MIC (A. baumannii SR01331) [µg/mL]	MIC (E. cloacae NCTC13464) [µg/mL]	MIC (E. coli ATCCBAA-196) [µg/mL]	MIC (E. coli ATCCBAA-200) [µg/mL]	MIC (E. coli SR01337) [µg/mL]	MIC (K. pneumoniae ATCC700603) [µg/mL]	MIC (P. aeruginosa SR01332) [µg/mL]	MIC (P. aeruginosa SR01335) [µg/mL]	Minimum Inhibitory Concentration (MIC) A. baumannii SR01331 (A. baumannii SR01331) [µg/mL]	Minimum Inhibitory Concentration (MIC) E. cloacae NCTC 13464 (E. cloacae NCTC13464) [µg/mL]	Minimum Inhibitory Concentration (MIC) E. coli ATCC BAA-196 (E. coli ATCCBAA-196) [µg/mL]	Minimum Inhibitory Concentration (MIC) E. coli ATCC BAA-200 (E. coli ATCCBAA-200) [µg/mL]	Minimum Inhibitory Concentration (MIC) E. coli SR01337 (E. coli SR01337) [µg/mL]	Minimum Inhibitory Concentration (MIC) K. pneumoniae ATCC 700603 (K. pneumoniae ATCC700603) [µg/mL]	Minimum Inhibitory Concentration (MIC) P. aeruginosa SR01332 (P. aeruginosa SR01332) [µg/mL]	Minimum Inhibitory Concentration (MIC) P. aeruginosa SR01335 (P. aeruginosa SR01335) [µg/mL]
C[N+]1(CC2=C(c3nnn[nH]3)N3C(=O)[C@@H](NC(=O)/C(=N\O[C@@H](CC(=O)O)C(=O)O)c4nc(N)sc4Cl)[C@H]3SC2)[C@@H]2CC[C@H]1C[C@@H](NC(=O)c1ccc(O)c(O)c1Cl)C2.[Na+].[Na+] (stereo partly drawn) [Compound I-96]	0.25	0.5	0.25	1	0.125	1	4	2								
